Patent US7868013B2, “Cycloalkyl substituted pyrimidinediamine compounds and their uses” (Rigel Pharmaceuticals, Inc., priority 2004, dated 2011)
Counter-ions that a name gives are not always drawn. Like-named read-outs stand apart in the source and are kept apart here.

Assays:
A549 (lung carcinoma) = assay: In vitro antiproliferation assay, A549 cells (TABLE 1 6 point assay; TABLE 2); type: cell-based
Protocol: (§1) Certain compounds were tested against other cell types for their ability to inhibit proliferation in standard antiproliferation assays.

[1] = test system: H1299 (non-small cell lung carcinoma); assay: In vitro antiproliferation assay, H1299 cells (TABLE 1 6 point assay; TABLE 2); type: cell-based
Protocol: as §1

[2] = Homo sapiens, A549, 6 point assay, A549 cells, read-out: IC50, A549 cells
[3] = Homo sapiens, NCI-H1299, 6 point assay, H1299 cells, read-out: IC50, H1299 cells
[4] = 6 point assay, A549 cells, read-out: IC50, A549 cells
[5] = 6 point assay, H1299 cells, read-out: IC50, H1299 cells

SMILES | IC50 (A549 (lung carcinoma); [2]) | IC50 [1, 3] | also measured
Cc1cc(Nc2ncc(F)c(N[C@H]3[C@@H](C(=O)NC4CCC4)[C@@H]4C=C[C@H]3C4)n2)ccc1N1CCN(C)CC1 [compound 192, (1R,2R,3S,4S)-N4-[3-(N-Cyclobutyl)aminocarbonylbicyclo[2.2.1]hept-5-en-2-yl]-5-fluoro-N2-[3-methyl-4-(4-methylpiperazin-1-yl)phenyl]-2,4-pyrimidinediamine] | – | – | IC50 (A549 (lung carcinoma); Homo sapiens, A549, A549 cells, 6 point assay, read-out: A549, 6pt (IC50, inhibition of proliferation)): ≤ 100 nM; IC50 ([1]; Homo sapiens, NCI-H1299, H1299 cells, 6 point assay, read-out: H1299, 6pt (IC50, inhibition of proliferation)): ≤ 100 nM
Cc1cc(Nc2ncc(F)c(N[C@@H]3[C@H](C(=O)NC4CCC4)[C@H]4C=C[C@@H]3C4)n2)ccc1N1CCN(C)CC1 [compound 193, (1S,2S,3R,4R)-N4-[3-(N-Cyclobutyl)aminocarbonylbicyclo[2.2.1]hept-5-en-2-yl]-5-fluoro-N2-[3-methyl-4-(4-methylpiperazin-1-yl)phenyl]-2,4-pyrimidinediamine] | > 10000 nM | 1000 to 10000 nM | –
CN1CCN(c2ccc(Nc3ncc(F)c(NC4CCCC4C(N)=O)n3)cc2)CC1 (centres unmarked) [compound 194, N4-(2-Carboxamidocyclopentyl)-5-fluoro-N2-[4-(4-methylpiperazino)phenyl]-2,4-pyrimidinediamine] | 100 to 1000 nM | 100 to 1000 nM | –
CN1CCN(c2cccc(Nc3ncc(F)c(NC4CCCC4C(N)=O)n3)c2)CC1 (centres unmarked) [compound 195] | 100 to 1000 nM | 100 to 1000 nM | –
CC(=O)N1CCN(c2ccc(Nc3ncc(F)c(NC4CCCC4C(N)=O)n3)cc2)CC1 (centres unmarked) [compound 196, N2-[4-(4-Acetylpiperazino)phenyl]-N4-(2-carboxamidocyclopentyl)-5-fluoro-2,4-pyrimidinediamine] | 100 to 1000 nM | 100 to 1000 nM | –
CC(=O)N1CCN(c2cccc(Nc3ncc(F)c(NC4CCCC4C(N)=O)n3)c2)CC1 (centres unmarked) [compound 197, N2-[3-(4-Acetylpiperazino)phenyl]-N4-(2-carboxamidocyclopentyl)-5-fluoro-2,4-pyrimidinediamine] | 1000 to 10000 nM | 100 to 1000 nM | –
NC(=O)C1CCCC1Nc1nc(Nc2ccc(N3CCOCC3)cc2)ncc1F (centres unmarked) [compound 198, N4-(2-Carboxamidocyclopentyl)-5-fluoro-N2-(4-morpholinophenyl)-2,4-pyrimidinediamine] | 100 to 1000 nM | 100 to 1000 nM | –
CCOC(=O)N1CCN(c2ccc(Nc3ncc(F)c(NC4CCCC4C(N)=O)n3)cc2)CC1 (centres unmarked) [compound 199, N4-(2-Carboxamidocyclopentyl)-N2-[4-(4-ethoxycarbonylpiperazino)phenyl]-5-fluoro-2,4-pyrimidinediamine] | 100 to 1000 nM | 100 to 1000 nM | –
NC(=O)C1CCCC1Nc1nc(Nc2cccc(N3CCOCC3)c2)ncc1F (centres unmarked) [compound 200, N4-(2-Carboxamidocyclopentyl)-5-fluoro-N2-(3-morpholinophenyl)-2,4-pyrimidinediamine] | 100 to 1000 nM | 1000 to 10000 nM | –
CCOC(=O)N1CCN(c2cccc(Nc3ncc(F)c(NC4CCCC4C(N)=O)n3)c2)CC1 (centres unmarked) [compound 201, N4-(2-Carboxamidocyclopentyl)-N2-[3-(4-ethoxycarbonylpiperazino)phenyl]-5-fluoro-2,4-pyrimidinediamine] | 100 to 1000 nM | 1000 to 10000 nM | –
CN1CCN(c2ccc(Nc3ncc(F)c(NC4CCCC4C(N)=O)n3)cc2Cl)CC1 (centres unmarked) [compound 202, N4-(2-Carboxamidocyclopentyl)-N2-[3-chloro-4-(4-methylpiperazino)phenyl]-5-fluoro-2,4-pyrimidinediamine] | 100 to 1000 nM | 100 to 1000 nM | –
CN1CCN(c2ccc(Nc3ncc(F)c(NC4CCCC4C(N)=O)n3)cc2)CC1 (centres unmarked) [compound 203, N4-(2-Carboxamidocyclopentyl)-5-fluoro-N2-[4-(4-methylpiperazino)phenyl]-2,4-pyrimidinediamine Monohydrochloride Salt] | – | – | IC50 (A549 (lung carcinoma); [4]): 100 to 1000 nM; IC50 [1, 5]: 100 to 1000 nM
CN1CCN(c2ccc(Nc3ncc(F)c(NC4CCCC4C(N)=O)n3)cc2C(F)(F)F)CC1 (stereo not drawn) [compound 204, (cis)-N4-(2-Carboxamidocyclopent-1-yl)-5-fluoro-N2-[4-(4-methylpiperazino)-3-trifluoromethylphenyl]-1,4-pyrimidinediamine] | 100 to 1000 nM | 1000 to 10000 nM | –
CN1CCN(c2ccc(Nc3ncc(F)c(NC4CCCC4C(N)=O)n3)cc2Cl)CC1 (stereo not drawn) [compound 205, (cis)-N4-(2-Carboxamidocyclopent-1-yl)-N2-[3-chloro-4-(4-methylpiperazino)phenyl]-5-fluoro-2,4-pyrimidinediamine] | – | – | IC50 (A549 (lung carcinoma); [4]): 100 to 1000 nM; IC50 [1, 5]: 100 to 1000 nM
Cc1cc(Nc2ncc(F)c(NC3CCCC3C(N)=O)n2)ccc1N1CCN(C)CC1 (stereo not drawn) [compound 206, (cis)-N4-(2-Carboxamidocyclopent-1-yl)-5-fluoro-N2-[3-methyl-4-(4-methylpiperazino)phenyl]-2,4-pyrimidinediamine] | 100 to 1000 nM | 100 to 1000 nM | IC50 (A549 (lung carcinoma); Homo sapiens, A549, A549, read-out: In Vitro IC50): ≤ 1000 nM
CN1CCN(c2ccc(Nc3ncc(F)c(NC4CCCC4C(N)=O)n3)cc2C(F)(F)F)CC1 (stereo not drawn) [compound 207, (cis)-N4-(2-Carboxamidocyclopent-1-yl)-5-fluoro-N2-[4-(4-methylpiperazino)-3-trifluoromethylphenyl]-2,4-pyrimidinediamine Bis Hydrogen Chloride Salt] | – | – | IC50 (A549 (lung carcinoma); [4]): 100 to 1000 nM; IC50 [1, 5]: 1000 to 10000 nM
COC(=O)[C@H]1CCC[C@@H]1Nc1nc(Nc2ccc(N3CCN(C)CC3)c(C)c2)ncc1F [compound 208, (1S,2S)-5-fluoro-N4-(2-methoxycarbonylcyclopent-1-yl)-N2-[3-methyl-4-(4-methylpiperazino)phenyl]-2,4-pyrimidinediamine] | 1000 to 10000 nM | 1000 to 10000 nM | –
Cc1cc(Nc2ncc(F)c(N[C@H]3CCC[C@@H]3C(=O)O)n2)ccc1N1CCN(C)CC1 [compound 209, (1S,2S)-5-fluoro-N4-(2-hydroxycarbonylcyclopent-1-yl)-N2-[3-methyl-4-(4-methylpiperazino)phenyl]-2,4-pyrimidinediamine] | > 10000 nM | > 10000 nM | –
CCOC(=O)[C@@H]1CCC[C@H]1Nc1nc(Nc2ccc(N3CCN(C)CC3)c(C)c2)ncc1F [compound 210, (1R,2R)-N4-(2-Ethoxycarbonylcyclopent-1-yl)-5-fluoro-N2-{3-methyl-4-(4-methylpiperazino)phenyl]-2,4-pyrimidinediamine] | 1000 to 10000 nM | 1000 to 10000 nM | –
Cc1cc(Nc2ncc(F)c(N[C@@H]3CCC[C@H]3C(=O)O)n2)ccc1N1CCN(C)CC1 [compound 211, (1R,2R)-5-fluoro-N4-(2-hydroxycarbonylcyclopent-1-yl)-N2-[3-methyl-4-(4-methylpiperazino)phenyl]-2,4-pyrimidinediamine] | > 10000 nM | > 10000 nM | –
Cc1ccc(Nc2ncc(F)c(NC3CCCC3C(N)=O)n2)cc1 (stereo not drawn) [compound 212, (cis)-N4-(2-Carboxamidocyclopent-1-yl)-5-fluoro-N2-(4-methylphenyl)-2,4-pyrimidinediamine] | 1000 to 10000 nM | 1000 to 10000 nM | –
Cc1cc(Nc2ncc(F)c(NC3CCCC3C(N)=O)n2)cc(C)c1O (stereo not drawn) [compound 213, (cis)-N4-(2-Carboxamidocyclopent-1-yl)-N2-(3,5-dimethyl-4-hydroxyphenyl)-5-fluoro-2,4-pyrimidinediamine] | 100 to 1000 nM | 100 to 1000 nM | –
COC(=O)[C@H]1CC[C@@H](Nc2nc(Nc3ccc(N4CCN(C)CC4)c(C)c3)ncc2F)C1 [compound 214, (1R,3S)-N4-(3-Methoxycarbonylcyclopent-1-yl)-5-fluoro-N2-[3-methyl-4-(4-methylpiperazin-1-yl)phenyl]-2,4-pyrimidinediamine] | 1000 to 10000 nM | 1000 to 10000 nM | –
COC(=O)[C@@H]1CC[C@H](Nc2nc(Nc3ccc(N4CCN(C)CC4)c(C)c3)ncc2F)C1 [compound 215, (1S,3R)-N4-(3-Methoxycarbonylcyclopent-1-yl)-5-fluoro-N2-[3-methyl-4-(4-methylpiperazin-1-yl)phenyl]-2,4-pyrimidinediamine] | 1000 to 10000 nM | 1000 to 10000 nM | –
Cc1cc(Nc2ncc(F)c(N[C@H]3CC[C@@H](C(=O)O)C3)n2)ccc1N1CCN(C)CC1 [compound 219, (1S,3R)-N4-(3-Carboxycyclopent-1-yl)-fluoro-N2-[3-methyl-4-(4-methylpiparazin-1-yl)phenyl]-2,4-pyrimidinediamine] | > 10000 nM | > 10000 nM | –
Cc1cc(Nc2ncc(F)c(N[C@H]3CC[C@H](C(N)=O)C3)n2)ccc1N1CCN(C)CC1 [compound 220, (1S,3S)-N4-(3-Aminocarbonylcyclopent-1-yl)-5-fluoro-N2-[3-methyl-4-(4-methylpiperazin-1-yl)phenyl]-2,4-pyrimidinediamine] | 1000 to 10000 nM | 1000 to 10000 nM | –
Cc1cc(Nc2ncc(F)c(N[C@@H]3C=C[C@H](C(N)=O)C3)n2)ccc1N1CCN(C)CC1 [compound 225, (1S,4R)-cis-N4-(4-Aminocarbonylcyclopent-2-ene-1-yl)-5-fluoro-N2-[3-methyl-4-(4-methylpiperazin-1-yl)phenyl]-2,4-pyrimidinediamine] | 100 to 1000 nM | 100 to 1000 nM | –
Cc1cc(Nc2ncc(F)c(N[C@H]3C=C[C@@H](C(N)=O)C3)n2)ccc1N1CCN(C)CC1 [compound 226, (1R,4S)-cis-N4-(4-Aminocarbonylcyclopent-2-ene-1-yl)-5-fluoro-N2-[3-methyl-4-(4-methylpiperazin-1-yl)phenyl]-2,4-pyrimidinediamine] | 1000 to 10000 nM | 1000 to 10000 nM | –
Cc1cc(Nc2ncc(F)c(NC3CC=CC3)n2)ccc1N1CCN(C)CC1 [compound 237, N4-(Cyclopent-3-ene-1-yl)-5-fluoro-N2-[3-methyl-4-(4-methylpiperazin-1-yl)phenyl]-2,4-pyrimidinediamine] | 100 to 1000 nM | 1000 to 10000 nM | –
